Data published in patent publication US11980689B2 (AVALYN PHARMA INC., priority 2013, dated 2024).
“Also recorded” adds a separate entry of the source.

Columns and labels:
PI3K = details: cited from earlier work
mTOR = mTOR (Homo sapiens, UniProt P42345); details: cited from earlier work
p110a = p110a (Homo sapiens, UniProt P42336); details: cited from earlier work
JAK2V617F = JAK2V617F (Homo sapiens, UniProt O60674, V617F); details: cited from earlier work
CYP3A4 = CYP3A4 (Homo sapiens, UniProt P08684); details: cited from earlier work
lung cancer = details: cited from earlier work
p110-γ and p110-δ = details: cited from earlier work
[1] = single- and repeat-dosing; cited from earlier work
breast cancer stem cells = details: mouse, in vivo; cited from earlier work
in vivo = details: Sprague-Dawley, rat
KIT receptor = details: cited from earlier work
TIE-2 [TEK] = TIE-2 [TEK] (Homo sapiens, UniProt Q02763); details: purified enzymes; cited from earlier work
kit in H526 cells = kit in H526 cells (Homo sapiens, UniProt P10721); details: pretreatment of H526 cells; cited from earlier work
IPF = details: cited from earlier work
heavy metal challenge = details: oral; cited from earlier work
PDGFR-α = PDGFR-α (Homo sapiens, UniProt P16234); details: cellular studies; cited from earlier work
[2] = in vivo
chelation of magnesium = assay type: physicochemical
TEL-PDGFRβ = target: T1, TEL-PDGFRβ (Homo sapiens, UniProt P09619); details: mouse, in vivo; cited from earlier work
T1 construct: host or cells: transgenic mice; the other entry of the earlier key: ETV6 (P41212, Transcription factor ETV6)

chelation of iron(III) = assay type: physicochemical
[3] = test system: Hepatitis C viral-related liver disease; details: oral; cited from earlier work
renal fibrosis = details: rat, in vivo; cited from earlier work
liver fibrosis = details: cited from earlier work
[4] = test system: dimethylnitrosamine-induced hepatic fibrosis; details: cited from earlier work
CML = details: cited from earlier work
[5] = Sprague-Dawley, rat, in vivo, po, 5.6 mg/kg
PDGFR-β = PDGFR-β (Homo sapiens, UniProt P09619); details: cellular studies; cited from earlier work
fibrosis = details: rat, in vivo; cited from earlier work
[6] = test system: KIT with mutations affecting the activation loop; details: cited from earlier work
[7] = test system: committed progenitor cells from patients with CML; details: cited from earlier work
[8] = target: fibroblast growth factor receptor 1 (FGF-R1) (Homo sapiens, UniProt P11362); details: purified enzymes; cited from earlier work
[9] = target: epidermal growth factor (EGF) receptor intracellular domain (Homo sapiens, UniProt P00533); details: purified enzymes; cited from earlier work
[10] = test system: bleomycin-induced pulmonary fibrosis; details: cited from earlier work
[11] = test system: KIT with mutations in the juxtamembrane domain-coding region; details: cited from earlier work
[12] = test system: A10 rat aorta smooth muscle cells; details: cited from earlier work
VEGF-R1 = VEGF-R1 (Homo sapiens, UniProt P17948); details: purified enzymes; cited from earlier work
VEGF-R2 = VEGF-R2 (Homo sapiens, UniProt P35968); details: purified enzymes; cited from earlier work
[13] = test system: Alpha-1 glycoprotein (AGP); details: cited from earlier work
c-MET = c-MET (Homo sapiens, UniProt P08581); details: purified enzymes; cited from earlier work
cardiac fibrosis = details: rat, in vivo; cited from earlier work
[14] = test system: radiation-induced lung fibrosis; details: mouse, in vivo; cited from earlier work
c-kit = c-kit (Homo sapiens, UniProt P10721); details: kinase activity at 5 μM; cited from earlier work
[15] = test system: doxorubicin-induced toxicity (heart and kidney); details: mortality, abdominal fluid, cardiac and renal lesions; cited from earlier work
[16] = test system: kidney fibrosis following diabetic challenge; details: oral; cited from earlier work

T1 sequence (P09619 554-1106 limits assumed): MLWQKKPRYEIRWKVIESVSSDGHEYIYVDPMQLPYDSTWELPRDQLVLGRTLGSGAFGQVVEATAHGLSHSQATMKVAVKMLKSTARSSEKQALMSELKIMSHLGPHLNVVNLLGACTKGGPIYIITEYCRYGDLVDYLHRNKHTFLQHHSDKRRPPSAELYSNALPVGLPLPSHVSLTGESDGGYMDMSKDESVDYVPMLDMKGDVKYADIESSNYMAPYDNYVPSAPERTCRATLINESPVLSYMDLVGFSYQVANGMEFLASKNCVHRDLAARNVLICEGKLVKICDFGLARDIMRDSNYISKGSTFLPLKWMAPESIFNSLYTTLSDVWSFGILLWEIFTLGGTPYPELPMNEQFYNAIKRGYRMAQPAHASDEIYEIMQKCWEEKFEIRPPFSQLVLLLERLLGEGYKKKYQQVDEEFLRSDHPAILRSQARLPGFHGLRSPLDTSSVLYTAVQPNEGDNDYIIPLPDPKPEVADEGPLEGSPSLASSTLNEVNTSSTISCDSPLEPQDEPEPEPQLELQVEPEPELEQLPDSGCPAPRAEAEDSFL
CYP3A4, sequence (P08684 whole entry): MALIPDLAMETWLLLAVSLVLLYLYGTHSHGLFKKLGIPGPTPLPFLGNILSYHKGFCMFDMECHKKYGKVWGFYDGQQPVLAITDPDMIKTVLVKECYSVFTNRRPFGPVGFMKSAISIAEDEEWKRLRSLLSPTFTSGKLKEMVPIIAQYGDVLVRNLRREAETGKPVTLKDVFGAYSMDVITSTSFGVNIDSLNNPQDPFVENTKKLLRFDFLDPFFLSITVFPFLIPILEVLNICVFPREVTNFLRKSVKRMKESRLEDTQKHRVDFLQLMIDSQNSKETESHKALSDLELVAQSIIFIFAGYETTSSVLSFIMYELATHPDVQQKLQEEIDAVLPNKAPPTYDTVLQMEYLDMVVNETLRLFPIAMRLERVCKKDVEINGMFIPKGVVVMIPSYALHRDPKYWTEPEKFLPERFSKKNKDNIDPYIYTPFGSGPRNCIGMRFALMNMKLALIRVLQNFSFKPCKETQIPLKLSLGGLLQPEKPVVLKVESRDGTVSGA
kit in H526 cells, sequence (P10721 26-976): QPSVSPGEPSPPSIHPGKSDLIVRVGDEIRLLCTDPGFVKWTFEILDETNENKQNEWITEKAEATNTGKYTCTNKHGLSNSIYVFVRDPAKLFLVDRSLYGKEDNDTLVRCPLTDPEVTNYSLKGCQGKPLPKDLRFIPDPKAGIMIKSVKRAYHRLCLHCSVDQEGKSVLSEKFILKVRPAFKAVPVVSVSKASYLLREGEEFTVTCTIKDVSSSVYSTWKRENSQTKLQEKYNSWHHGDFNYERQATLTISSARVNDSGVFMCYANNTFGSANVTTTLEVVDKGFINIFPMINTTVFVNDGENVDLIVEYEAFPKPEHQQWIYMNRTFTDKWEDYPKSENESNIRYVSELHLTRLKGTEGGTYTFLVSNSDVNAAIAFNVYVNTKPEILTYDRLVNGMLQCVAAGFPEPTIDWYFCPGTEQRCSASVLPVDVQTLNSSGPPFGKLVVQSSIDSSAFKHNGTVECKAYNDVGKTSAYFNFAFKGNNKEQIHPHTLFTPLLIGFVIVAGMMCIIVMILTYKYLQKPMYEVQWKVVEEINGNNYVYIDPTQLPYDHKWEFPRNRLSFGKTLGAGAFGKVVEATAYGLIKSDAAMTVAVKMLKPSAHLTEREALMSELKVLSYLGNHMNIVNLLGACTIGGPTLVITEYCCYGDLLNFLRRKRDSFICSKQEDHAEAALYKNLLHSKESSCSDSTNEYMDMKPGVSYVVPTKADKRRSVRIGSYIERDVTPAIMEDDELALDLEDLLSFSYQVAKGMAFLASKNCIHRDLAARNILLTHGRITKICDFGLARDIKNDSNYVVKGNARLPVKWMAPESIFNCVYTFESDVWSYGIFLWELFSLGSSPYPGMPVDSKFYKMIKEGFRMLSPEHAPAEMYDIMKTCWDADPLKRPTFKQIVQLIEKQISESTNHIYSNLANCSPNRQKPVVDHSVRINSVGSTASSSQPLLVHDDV
c-kit, sequence (P10721 26-976): as above
epidermal growth factor (EGF) receptor intracellular domain, sequence (P00533 669-1210 limits assumed): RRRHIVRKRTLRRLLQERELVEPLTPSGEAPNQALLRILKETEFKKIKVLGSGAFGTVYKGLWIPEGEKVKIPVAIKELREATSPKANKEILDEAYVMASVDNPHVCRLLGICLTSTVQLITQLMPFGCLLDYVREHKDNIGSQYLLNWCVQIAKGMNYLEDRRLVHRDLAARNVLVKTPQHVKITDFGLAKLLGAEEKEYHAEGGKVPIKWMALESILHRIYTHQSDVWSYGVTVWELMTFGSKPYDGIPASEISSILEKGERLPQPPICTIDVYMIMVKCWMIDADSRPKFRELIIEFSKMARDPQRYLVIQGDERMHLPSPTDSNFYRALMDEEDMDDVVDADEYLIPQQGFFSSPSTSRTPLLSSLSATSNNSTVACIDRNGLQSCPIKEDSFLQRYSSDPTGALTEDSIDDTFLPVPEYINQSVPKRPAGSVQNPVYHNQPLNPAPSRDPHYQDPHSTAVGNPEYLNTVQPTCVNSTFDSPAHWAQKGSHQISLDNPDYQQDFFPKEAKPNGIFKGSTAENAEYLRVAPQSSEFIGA
VEGF-R2, sequence (P35968 20-1356, species assumed): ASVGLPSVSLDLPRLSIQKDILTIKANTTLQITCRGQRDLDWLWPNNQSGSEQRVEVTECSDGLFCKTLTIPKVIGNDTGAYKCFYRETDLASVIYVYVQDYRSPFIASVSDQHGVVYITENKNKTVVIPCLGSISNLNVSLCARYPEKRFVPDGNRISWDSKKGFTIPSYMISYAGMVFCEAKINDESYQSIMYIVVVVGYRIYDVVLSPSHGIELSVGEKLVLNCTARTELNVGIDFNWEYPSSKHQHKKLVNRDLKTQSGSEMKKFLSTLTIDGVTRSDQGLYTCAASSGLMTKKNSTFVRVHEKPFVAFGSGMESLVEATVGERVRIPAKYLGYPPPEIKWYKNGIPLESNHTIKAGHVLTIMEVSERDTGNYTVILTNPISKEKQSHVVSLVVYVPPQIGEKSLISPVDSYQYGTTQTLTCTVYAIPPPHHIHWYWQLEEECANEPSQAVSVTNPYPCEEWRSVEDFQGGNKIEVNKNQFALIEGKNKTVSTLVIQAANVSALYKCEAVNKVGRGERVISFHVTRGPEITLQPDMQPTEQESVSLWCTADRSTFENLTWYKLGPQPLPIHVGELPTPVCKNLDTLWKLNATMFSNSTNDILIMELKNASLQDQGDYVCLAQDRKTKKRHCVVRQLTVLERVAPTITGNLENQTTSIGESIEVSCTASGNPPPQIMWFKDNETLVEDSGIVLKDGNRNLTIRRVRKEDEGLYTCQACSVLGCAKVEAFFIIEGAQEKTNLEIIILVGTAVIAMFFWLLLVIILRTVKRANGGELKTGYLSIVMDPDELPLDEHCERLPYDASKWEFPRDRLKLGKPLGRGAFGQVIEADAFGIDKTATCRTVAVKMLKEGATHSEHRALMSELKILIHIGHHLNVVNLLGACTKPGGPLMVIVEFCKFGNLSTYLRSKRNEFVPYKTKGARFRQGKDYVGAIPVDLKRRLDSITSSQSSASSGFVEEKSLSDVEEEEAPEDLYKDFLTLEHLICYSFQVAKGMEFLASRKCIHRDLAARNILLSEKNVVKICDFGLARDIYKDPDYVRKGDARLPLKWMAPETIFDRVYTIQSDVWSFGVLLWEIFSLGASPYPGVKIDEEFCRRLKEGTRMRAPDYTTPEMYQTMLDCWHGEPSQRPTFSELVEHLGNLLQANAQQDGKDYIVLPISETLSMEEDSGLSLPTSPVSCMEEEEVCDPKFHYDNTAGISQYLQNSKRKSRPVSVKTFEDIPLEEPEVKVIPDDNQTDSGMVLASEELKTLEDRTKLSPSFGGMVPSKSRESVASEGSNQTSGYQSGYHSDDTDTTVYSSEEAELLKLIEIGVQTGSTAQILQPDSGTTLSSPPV
fibroblast growth factor receptor 1 (FGF-R1), sequence (P11362 22-822, species assumed): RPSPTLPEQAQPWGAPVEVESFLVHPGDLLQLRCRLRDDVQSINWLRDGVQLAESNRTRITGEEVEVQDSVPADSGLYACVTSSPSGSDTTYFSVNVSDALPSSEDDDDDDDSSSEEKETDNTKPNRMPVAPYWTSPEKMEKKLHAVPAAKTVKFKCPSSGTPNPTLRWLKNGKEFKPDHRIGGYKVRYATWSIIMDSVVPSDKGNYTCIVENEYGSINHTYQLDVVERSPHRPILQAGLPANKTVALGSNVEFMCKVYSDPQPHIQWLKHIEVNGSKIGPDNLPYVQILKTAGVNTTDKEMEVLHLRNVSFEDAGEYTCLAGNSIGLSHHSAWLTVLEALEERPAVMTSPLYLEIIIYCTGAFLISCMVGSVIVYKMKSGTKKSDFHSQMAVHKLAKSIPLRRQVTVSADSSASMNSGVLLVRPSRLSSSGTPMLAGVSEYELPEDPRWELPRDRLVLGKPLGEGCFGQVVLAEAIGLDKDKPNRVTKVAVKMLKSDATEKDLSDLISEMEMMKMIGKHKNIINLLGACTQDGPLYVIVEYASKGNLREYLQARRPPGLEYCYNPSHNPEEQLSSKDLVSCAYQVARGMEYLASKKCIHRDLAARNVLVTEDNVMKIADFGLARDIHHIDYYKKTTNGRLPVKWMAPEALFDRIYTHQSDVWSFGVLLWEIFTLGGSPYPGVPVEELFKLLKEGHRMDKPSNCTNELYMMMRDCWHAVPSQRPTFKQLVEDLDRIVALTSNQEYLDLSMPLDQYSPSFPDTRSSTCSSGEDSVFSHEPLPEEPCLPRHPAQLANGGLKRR

Cc1c(CN2CCN(S(C)(=O)=O)CC2)sc2c(N3CCOCC3)nc(-c3cnc(N)nc3)nc12 [GNE-477]
IC50 (mTOR): 21 nM

FC(F)c1nc2ccccc2n1-c1nc(N2CCOCC2)nc(N2CCOCC2)n1 [ZSTK474]
inhibition (p110a): potent inhibitor

C#Cc1cccc(Nc2ncnc3cc(OCCOC)c(OCCOC)cc23)c1 [Erlotinib]
inhibition of JAK2V617F activity (JAK2V617F): potent inhibitor
metabolism (CYP3A4): mainly metabolized
response rate (lung cancer; EGFR mutation positive patients): approximately 60%
time to resistance from the start of treatment (lung cancer; human, in vivo): 8-12 months

Nc1nc(N)c2nc(-c3cccc(O)c3)c(-c3cccc(O)c3)nc2n1 [TG100-115]
better potency than against the other isoforms (p110-γ and p110-δ): 5-10 fold

O=C1NC(=O)/C(=C/c2ccc3nccc(-c4ccncc4)c3c2)S1 [GSK1059615]
exposure [1]: lack of sufficient exposure

CC[C@@H](C(=O)[C@@H](C)[C@@H](O)[C@H](C)[C@@H]1O[C@@H]([C@@H](CC)C(=O)O)CC[C@@H]1C)[C@H]1O[C@]2(C=C[C@@H](O)[C@]3(CC[C@@](C)([C@H]4CC[C@](O)(CC)[C@H](C)O4)O3)O2)[C@H](C)C[C@@H]1C [Salinomycin]
effectiveness relative to paclitaxel (breast cancer stem cells): at least 100 times

Cc1ccc(NC(=O)c2ccc(CN3CCN(C)CC3)cc2)cc1Nc1nccc(-c2cccnc2)n1 [imatinib, 4-[(4-methylpiperazin-1-yl)methyl]-N-(4-methyl-3-{[4-(pyridin-3-yl)pyrimidin-2-yl]amino}phenyl)benzamide]
AUC (in vivo; inhaled or intranasal, 1 mg/kg): 40 ng·h/mL
Cmax (in vivo; inhaled or intranasal, 1 mg/kg): 20 ng/mL
AUC (in vivo; po, 5.6 mg/kg): 4900 ng·h/mL
Cmax (in vivo; po, 5.6 mg/kg): 1100 ng/mL
KIT autophosphorylation (KIT receptor; cell line from a GIST patient with an activating Kit mutation): suppress
autophosphorylation of the KIT receptor (KIT receptor; upon binding of stem-cell factor (SCF)): potently inhibited; also recorded: blocks
inhibition of kinase activity (TIE-2 [TEK]): weak or no inhibition
SCF-mediated kit activation (kit in H526 cells): inhibited
secondary outcome parameters (IPF; DICO, change in PVC, 6-minute walk test): no benefit
incidence of AE-related drop-outs (IPF; dose reduction 600 mg to 400 mg daily allowed): 22%
primary outcome, time to disease progression (IPF; in vivo): no benefit
effect against heavy metal challenge (heavy metal challenge): protective effect
receptor inhibition (PDGFR-α): potent inhibition
lung-surface cations [2]: depletion of essential lung-surface cations
imatinib molecules to one magnesium ion (chelation of magnesium): two
survival of the animals (TEL-PDGFRβ): prolonged survival
tumor formation (TEL-PDGFRβ): inhibited tumor formation
imatinib molecules per iron(III) ion (chelation of iron(III)): three
fibrosis and quality of life [3]: decreased fibrosis and improved quality of life
action in renal fibrosis (renal fibrosis): antifibrotic action
inhibition of liver fibrosis, early treatment (liver fibrosis; Days 0 to 21): effective
inhibition of liver fibrosis, late treatment (liver fibrosis; Days 22 to 35): not late
mRNA for type I collagen and transforming growth factor-beta in the liver ([4]; in vivo): suppressed
effect against hepatic fibrosis ([4]; oral): protective effect
hepatic hydroxyproline levels ([4]; oral): reduced
patients achieving a complete haematological response (CML; chronic-phase CML, doses of 300 mg or higher): 98%
maximal tolerated dose (CML; oral 25 to 1,000 mg per day): no maximal tolerated dose was identified
Lung AUC [5]: 64.1 mg·h/kg
Lung Cmax [5]: 13.0 µg/g
receptor inhibition (PDGFR-β): potent inhibition
fibrosis (fibrosis): reversal of fibrosis
sensitivity of KIT mutants [6]: resistant
colony formation [7]: selective inhibition
inhibition of kinase activity [8]: weak or no inhibition
inhibition of EGF receptor intracellular domain [9]: did not inhibit
development of pulmonary fibrosis, early treatment ([10]; Days 0 to 15): significantly prevented
development of pulmonary fibrosis, late treatment ([10]; Days 15 to 28): did not
development of pulmonary fibrosis ([10]; mouse, in vivo): inhibited the development of pulmonary fibrosis
inhibition of KIT kinase activity [11]: effective
serum-induced growth [12]: did not affect
inhibition of kinase activity (VEGF-R1): weak or no inhibition
inhibition of kinase activity (VEGF-R2): weak or no inhibition
binding by AGP [13]: high affinity
inhibition of kinase activity (c-MET): weak or no inhibition
fibrosis (cardiac fibrosis): reversed and prevented fibrosis
effect on lung fibrosis [14]: antifibrotic effects
tyrosine phosphorylation and in vitro kinase activity of c-kit (c-kit): dose-dependent inhibition
severity of doxorubicin-induced toxicity [15]: reduced the severity
effect on fibrosis following diabetic challenge [16]: fibrosis reversal
